The subject of the assay is phosphorylation of the ribosomal S6 protein. The experiment in a line: Western blot of phospho-S6 in excised xenograft tumors. The format is in vivo, athymic nude mice. To be noted: western blot of tumors after the study, 50 mg/kg IP. Here is the method:
Cells were washed with PBS and whole cell lysates were prepared by incubating cells in […] (Invitrogen Corporation, Carlsbad, Calif.) supplemented with Protease Inhibitor Cocktail (Roche Applied Science, a division of Roche Diagnostics Corporation, Indianapolis, Ind.) and Phosphatase Inhibitor Cocktail (Roche) on ice for 30 minutes. After centrifuging the lysates at 12,000 rpm for 10 minutes at 4° C., the supernatant was collected. Protein concentration was determined using BCA Assay. The same amounts of protein were run on NuPAGE 4-12% Bis-Tris Gel, and then transferred onto a PVDF membrane. […]
The in vivo effects of compounds were determined in a mouse subcutaneous xenograft tumor model wherein AN3-CA cells were implanted subcutaneously into the hind flank of athymic nude mice. […] Tumor volume was determined using the formula L×W2×0.5, where L is the longest length, and W is the shortest length. Tumor volume and body weight was measured twice a week.
Following the study, the tumors from the vehicle and test compound groups were removed from the animals and analyzed for phosho-S6 levels by western blot (FIG. 10C). […]
In general terms: In western blotting, separated proteins are transferred to a membrane and probed.

The structures appear in SMILES notation.

For `CC1CN(c2ccc3nc(-c4n[nH]c5ccc(NC(=O)C6CC6(F)F)cc45)[nH]c3c2)CCO1` (stereo not shown) [Compound 2, 2,2-difluoro-N-(3-(5-(2-methylmorpholino)-1H-benzo[d]imidazol-2-yl)-1H-indazol-5-yl)cyclopropanecarboxamide], the “Phospho-S6 levels in tumors compared to the vehicle group” value was “down-regulation of phospho-S6 levels”.

For the origin of these results see patent US8569511B2, “Substituted 3-(1H-benzo[d]imidazol-2-yl)-1H-indazole analogs as inhibitors of the PDK1 kinase” (University of Utah Research Foundation, priority 2011, dated 2013).
